Measured values from ChEMBL document CHEMBL1130911 (Bioorg Med Chem Lett, 1998).
Starred links: 1 amine or outer side, 2 acyl side, 3 side chain; linkers in the order of their positions; H or OH if unused. Non-standard residues stand in square brackets, D forms with d. Residues, ends and D or L forms follow the SMILES beside them. X1 = O=C([C@@]1(N[*:1])CCCC[C@@H]1O)[*:2]; X2 = O=C([C@@]1(N[*:1])CCCC[C@H]1O)[*:2]; X3 = O=C([C@@]1(N[*:1])CCC[C@@H]1O)[*:2]; X4 = O=C([C@]1(N[*:1])CCC[C@H]1O)[*:2]

Key:
[1] = molecular target: T1, Delta-type opioid receptor (Rattus norvegicus, UniProt P33533); experiment: Inhibitory activity against forskolin-stimulated cAMP production in chinese hamster ovary cells expressing Opioid receptor delta 1; format: functional, cell-based, CHO
T1 sequence (P33533 whole entry): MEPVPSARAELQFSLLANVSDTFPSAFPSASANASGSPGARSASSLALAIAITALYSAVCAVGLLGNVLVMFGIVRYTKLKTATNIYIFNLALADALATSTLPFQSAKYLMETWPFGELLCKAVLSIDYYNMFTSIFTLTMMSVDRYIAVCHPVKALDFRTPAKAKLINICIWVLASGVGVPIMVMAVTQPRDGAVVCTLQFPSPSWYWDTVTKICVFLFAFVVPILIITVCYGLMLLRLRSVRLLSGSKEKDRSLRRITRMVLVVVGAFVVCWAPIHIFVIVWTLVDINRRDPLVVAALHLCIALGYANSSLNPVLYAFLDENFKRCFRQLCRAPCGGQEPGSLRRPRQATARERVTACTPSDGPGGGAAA

[2] = molecular target: T1, Delta-type opioid receptor; experiment: biochemical; format: cell-based, CHO
Description: Binding affinity against rat Opioid receptor delta 1 expressed in CHO cells determined by competitive inhibition of 1 nM [3H]DPDPE.

[3] = molecular target: Kappa-type opioid receptor (Rattus norvegicus, UniProt P34975); experiment: biochemical; format: cell-based, CHO
Kappa-type opioid receptor, sequence (P34975 whole entry): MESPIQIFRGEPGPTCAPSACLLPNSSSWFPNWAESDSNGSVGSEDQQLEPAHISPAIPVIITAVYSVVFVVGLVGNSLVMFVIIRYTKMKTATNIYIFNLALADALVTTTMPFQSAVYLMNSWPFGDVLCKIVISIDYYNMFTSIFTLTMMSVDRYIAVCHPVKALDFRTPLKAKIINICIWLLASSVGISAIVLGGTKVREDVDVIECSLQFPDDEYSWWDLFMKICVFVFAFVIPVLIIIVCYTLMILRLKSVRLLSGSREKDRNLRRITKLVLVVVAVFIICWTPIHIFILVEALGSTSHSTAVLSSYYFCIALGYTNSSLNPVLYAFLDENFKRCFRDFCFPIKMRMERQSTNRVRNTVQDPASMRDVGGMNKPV

Mu-type opioid receptor = Mu-type opioid receptor (Rattus norvegicus, UniProt P33535); experiment: biochemical; format: cell-based, CHO
Mu-type opioid receptor, sequence (P33535 whole entry): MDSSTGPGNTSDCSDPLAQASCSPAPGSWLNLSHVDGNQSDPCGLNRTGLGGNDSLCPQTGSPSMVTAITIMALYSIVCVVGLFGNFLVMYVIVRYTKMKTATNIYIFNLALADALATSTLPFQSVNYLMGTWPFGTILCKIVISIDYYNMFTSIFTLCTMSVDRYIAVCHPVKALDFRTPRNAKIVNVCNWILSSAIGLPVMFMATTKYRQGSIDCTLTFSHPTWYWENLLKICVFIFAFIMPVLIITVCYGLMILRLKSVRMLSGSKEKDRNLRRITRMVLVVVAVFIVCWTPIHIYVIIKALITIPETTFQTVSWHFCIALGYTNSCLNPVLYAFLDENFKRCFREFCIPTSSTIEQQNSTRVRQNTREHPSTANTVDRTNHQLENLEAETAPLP

Row | SMILES | IC50 ([1]; cho) | IC50 ([2]; cho) | IC50 ([3]; cho) | IC50 (Mu-type opioid receptor; cho) | IC50 [1] | IC50 [2] | IC50 [3] | IC50 (Mu-type opioid receptor)
1 | CC(C)C[C@@H](NC(=O)[C@@H](Cc1ccccc1)NC(=O)CNC(=O)[C@@](C)(CO)NC(=O)[C@H](N)Cc1ccc(O)cc1)C(=O)O | 0.071 nM | 0.4 nM | > 10000 nM | 6.3 nM | – | – | – | –
2 | CC(C)C[C@@H](NC(=O)[C@@H](Cc1ccccc1)NC(=O)CNC(=O)[C@](C)(CO)NC(=O)[C@H](N)Cc1ccc(O)cc1)C(=O)O | 5000 nM | 2500 nM | > 10000 nM | > 10000 nM | – | – | – | –
3 | CC(C)C[C@H](NC(=O)[C@H](Cc1ccccc1)NC(=O)CNC(=O)[C@@]1(NC(=O)[C@@H](N)Cc2ccc(O)cc2)CCCC[C@@H]1O)C(=O)O (H-Y[X1]GFL-OH) | – | – | – | – | 0.005 nM | 0.01 nM | 6310 nM | 0.25 nM
4 | CC(C)C[C@H](NC(=O)[C@H](Cc1ccccc1)NC(=O)CNC(=O)[C@@]1(NC(=O)[C@@H](N)Cc2ccc(O)cc2)CCCC[C@H]1O)C(=O)O (H-Y[X2]GFL-OH) | – | – | – | – | 2 nM | 1 nM | > 10000 nM | 50 nM
5 | CC(C)C[C@H](NC(=O)[C@H](Cc1ccccc1)NC(=O)CNC(=O)[C@@]1(NC(=O)[C@@H](N)Cc2ccc(O)cc2)CCC[C@@H]1O)C(=O)O (H-Y[X3]GFL-OH) | – | – | – | – | 0.01 nM | 0.04 nM | > 10000 nM | 2.5 nM
6 | CC(C)C[C@H](NC(=O)[C@H](Cc1ccccc1)NC(=O)CNC(=O)[C@]1(NC(=O)[C@@H](N)Cc2ccc(O)cc2)CCC[C@H]1O)C(=O)O (H-Y[X4]GFL-OH) | – | – | – | – | 10 nM | – | > 10000 nM | 320 nM
7 | CC(C)C[C@H](NC(=O)[C@H](Cc1ccccc1)NC(=O)CNC(=O)C(C)(C)NC(=O)[C@@H](N)Cc1ccc(O)cc1)C(=O)O (single isomer, unassigned) | – | – | – | – | 140 nM | 50 nM | > 10000 nM | 158 nM
